Data on five molecules can be found in patent US20250034182A1, “PHOSPHOLIPID COMPOUNDS AND METHODS OF MAKING AND USING THE SAME” (priority 2021, published 2025).

Each structure is given as a SMILES string. Like-named read-outs stand apart in the source and are kept apart here.

The subject of one series is HCV Replicon 2A. Description: HCV Replicon 2A EC50 (Example Q). The format is cell-based. The note with it: Hepatitis C virus, 72 h, read-out: HCV Replicon 2A EC50 (nM) (per Ex. Q). As for the experimental part:
(§1) Compounds were serially diluted in ten steps of 1:3 dilutions in 384-well plates. All serial dilutions were performed in four replicates per compound within the same 384-well plate. An HCV protease inhibitor ITMN-191 at […] was added as a control of 100% inhibition of HCV replication while puromycin at 10 mM was included as a control of 100% cytotoxicity. To each well of a black polystyrene 384-well plate (Greiner Bio-one, Monroe, NC), 90 μL of cell culture medium (without Geneticin) containing 2000 suspended HCV replicon cells was added with a Biotek μFlow workstation. For compound transfer into cell culture plates, 0.4 μL of compound solution from the compound serial dilution plate was transferred to the cell culture plate on a Biomek FX workstation. The DMSO concentration in the final assay wells was 0.44%. The plates were incubated for 3 days at 37° C. with 5% CO2 and 85% humidity. The HCV replicon assay was a multiplex assay, able to assess both cytotoxicity and antireplicon activity from the same well. The CC50 assay was performed first. The media in the 384-well cell culture plate was aspirated, and the wells were washed four times with 100 μL of PBS each, using a Biotek ELX405 plate washer. A volume of 50 μL of a solution containing 400 nM calcein AM (Anaspec, Fremont, CA) in 1×PBS was added to each well of the plate with a Biotek μFlow workstation. The plate was incubated for 30 min at room temperature before the fluorescence signal (excitation 490 nm, emission 520 nm) was measured with a Perkin-Elmer Envision plate reader. The EC50 assay was performed in the same wells as the CC50 assay. The calcein-PBS solution in the 384-well cell culture plate was aspirated with a Biotek ELX405 plate washer. A volume of 20 μL of Dual-Glo luciferase buffer (Promega, Madison, WI) was added to each well of the plate with a Biotek μFlow Workstation. The plate was incubated for 10 min at room temperature. A volume of 20 μL of a solution containing a 1:100 mixture of Dual-Glo Stop & Glo substrate (Promega, Madison, WI) and Dual-Glo Stop & Glo buffer (Promega, Madison, WI) was added to each well of the plate with a Biotek μFlow Workstation. The plate was then incubated at room temperature for 10 min before the luminescence signal was measured with a Perkin-Elmer Envision Plate Reader.

A short description of series [1]: HCV Replicon 2A CC50, calcein AM (Example Q). It is filed as cell-based. The settings on record: calcein AM fluorescence, read-out: HCV Replicon 2A CC50 (nM) (per Ex. Q). As for the experimental part:
as §1

[2] abbreviates: HCV replicon cells, 3 days, Dual-Glo luciferase.

Consider `CCCCCCCCCCCCCCCCCOC[C@H](COP(=O)(O)OC[C@@]1(C#N)O[C@@H](c2ccc3c(N)ncnn23)[C@H](O)[C@@H]1O)OCc1cc(F)cc(C#N)c1` [Compound 53, ((2R,3S,4R,5S)-5-(4-aminopyrrolo[2,1-f][1,2,4]triazin-7-yl)-2-cyano-3,4-dihydroxytetrahydrofuran-2-yl)methyl ((R)-2-((3-cyano-5-fluorobenzyl)oxy)-3-(heptadecyloxy)propyl) hydrogen phosphate], for which the concentration for a half-maximal effect (EC50) in the series with HCV Replicon 2A (setting [2]) amounted to 15500 nM. In series [1] (HCV replicon cells (2A)), the CC50 at 3 days is 36200 nM.
Take `CCCCCCCCCCCCCCCCCCCC[C@@H](COP(=O)(O)OC[C@@]1(C#N)O[C@@H](c2ccc3c(N)ncnn23)[C@H](O)[C@@H]1O)OCc1cc(F)cc(C#N)c1` [Compound 70, ((2R,3S,4R)-5-(4-aminopyrrolo[2,1-f][1,2,4]triazin-7-yl)-2-cyano-3,4-dihydroxytetrahydrofuran-2-yl)methyl ((S)-2-((3-cyano-5-fluorobenzyl)oxy)docosyl) hydrogen phosphate]: the EC50 in the series on HCV Replicon 2A came to 25200 nM. For the same molecule, in series [1] (HCV replicon cells), the CC50 at 3 days is 42700 nM.
`CCCCCCCCCCCCCCCCCCOC[C@H](COP(=O)(O)OC[C@@]1(C#N)O[C@@H](c2ccc3c(N)ncnn23)[C@H](O)[C@@H]1O)OCc1ccc(C#N)cc1OC` [Compound 73, ((2R,3S,4R)-5-(4-aminopyrrolo[2,1-f][1,2,4]triazin-7-yl)-2-cyano-3,4-dihydroxytetrahydrofuran-2-yl)methyl ((R)-2-((4-cyano-2-methoxybenzyl)oxy)-3-(octadecyloxy)propyl) hydrogen phosphate]: the EC50 in the series on HCV Replicon 2A (setting [2]) is 20400 nM. In addition, the CC50 at 3 days in series [1] (HCV replicon cells (2A)) is greater than 44400 nM.
Turning to `CCCCCCCCCCCCCCCCC[C@@H](COP(=O)(O)OC[C@@]1(C#N)O[C@@H](c2ccc3c(N)ncnn23)[C@H](O)[C@@H]1O)OCc1cc(F)cc(C#N)c1` [Compound 74, ((2R,3S,4R)-5-(4-aminopyrrolo[2,1-f][1,2,4]triazin-7-yl)-2-cyano-3,4-dihydroxytetrahydrofuran-2-yl)methyl ((S)-2-((3-cyano-5-fluorobenzyl)oxy)nonadecyl) hydrogen phosphate], in the series on HCV Replicon 2A, the EC50 is 22800 nM. Moreover, the CC50 at 3 days in series [1] (HCV replicon cells) is 35800 nM.
In the case of `CCCCCCCCCCCCCCCC[C@H](COP(=O)(O)OC[C@@]1(C#N)O[C@@H](c2ccc3c(N)ncnn23)[C@H](O)[C@@H]1O)OCc1cc(F)cc(C#N)c1` [Compound 78, ((2R,3S,4R,5S)-5-(4-aminopyrrolo[2,1-f][1,2,4]triazin-7-yl)-2-cyano-3,4-dihydroxytetrahydrofuran-2-yl)methyl ((R)-2-((3-cyano-5-fluorobenzyl)oxy)octadecyl) hydrogen phosphate], the EC50 in the series on HCV Replicon 2A (setting [2]) stood at 18400 nM. For the same molecule, the CC50 at 3 days in series [1] (HCV replicon cells (2A)) was 33800 nM.
